Assay results published in US10583127B2, “Amine salt of (1R, 3S)-3-(5-cyano-4-phenyl-1,3- thiazol-2-ylcarbamoyl)cyclopentane carboxylic acid” (PALOBIOFARMA, S.L., priority 2017, dated 2020).
“Also recorded” adds a separate entry of the source. Where two headings read alike, the source gives them in different places.

Columns and labels:
[1] = Oral bioavailability assay: plasma pharmacokinetics after single IV and PO administration; settings: male SD rats
Protocol: (§1) Animals were divided into two groups: Group 1 (IV: 1 mg/kg) and Group 2 (PO: 5 mg/kg). […] The blood samples were collected from set of three rats at each time point in labeled micro centrifuge tube containing K2EDTA solution as anticoagulant at Pre-dose, 0.083, 0.25, 0.5, 1, 2, 4, 8 and 24 hr (IV) and Pre-dose, 0.25, 0.5, 1, 2, 4, 6, 8 and 24 hr (PO). Plasma samples were separated by centrifugation of whole blood and stored below −70±10° C. until bioanalysis. All samples were processed for analysis by protein precipitation using acetonitrile and analyzed with fit-for-purpose LC-MS/MS method (LLOQ=1.00 ng/ml). Pharmacokinetic parameters were calculated using the non-compartmental analysis tool of Phoenix WinNonlin® (Version 6.3).
(§2) AUC last refers to the area under the curve from the time of dosing to the time of last observation that is greater than the limit of quantitation.
(§3) Clearance refers to the measurement of the ability of the body to remove drug from the plasma, and is calculated from the intravenous dosing.
(§4) F % refers to the bioavailability. The systemic availability of a compound after oral administration is calculated using the following equation: F(%)=(AUClast PO×Dose IV/AUClast IV×Dose PO)×100

[2] = Hygroscopicity study by Dynamic Vapour Sorption (DVS) profiles; type: physicochemical; settings: for moisture content at 25% RH / moisture content at 55% RH / moisture content at 75% RH (variation in the moisture content): DVS sorption isotherm at 25° C.
Protocol: Hygroscopicity studies of salts were carried out by preparation of Dynamic Vapour Sorption (DVS) profiles, with a TA instrument Q5000 apparatus. After an initial stabilization period (samples are pre-dried at 60° C. under vacuum), isotherms (at 25° C.) were obtained for each sample: a moisture sorption from 0 to 95% relative humidity (RH) and moisture desorption from 95% RH to dryness. Both isotherms were performed in 5% and 10% humidity steps.
The relative humidity (RH) was controlled by a mixture of wet and dry nitrogen stream. The RH was held constant until the equilibrium had been obtained (constant weight) or until the maximum time has been reached, before changing the RH to the next level.

[3] = Solubility screen assay (nephelometry); settings: 37° C.
Protocol: (§5) Solubility screen assays were carried out as following: stock solutions (10^−2M) of the assayed compounds were diluted to decreased molarity from 500 μM to 0.256 nM, in 384 well transparent plate (Greiner 781101) with 5% DMSO: 95% PBS buffer. Samples were incubated at 37° C. and read after 2 and 4 hours in a NEPHELOstar Plus (BMGLABTECH).

[4] = Stability study under forced conditions (one week at 40° C. and 70% RH, XRPD check); type: physicochemical
Protocol: Stability studies under forced conditions were carried out by keeping the product under study for one week at 40° C. and 70% RH. Salts were analyzed by XRPD to check any change in the crystalline form.

physchem = settings: 37 °C, aqueous with cosolvent or surfactant or cyclodextrin, kinetic from dmso stock
Protocol: as §5

in vivo = settings: male, SD, rat
Protocol: as §1, §2, §3, §4

[5] = listed as (1R-3S)-3-(5-cyano-4-phenyl-1,3-thiazol-2-ylcarbamoyl)cyclopentane carboxylic ac
[6] = DVS, usual drug storage conditions (<75% RH)

For `N#Cc1sc(NC(=O)[C@H]2CC[C@@H](C(=O)O)C2)nc1-c1ccccc1` [(1R,3S)-3-(5-cyano-4-phenyl-1,3-thiazol-2-ylcarbamoyl)cyclop] [1,3-dihydroxy-2-(hydroxymethyl)propan-2-aminium (1R,3S)-3-((5-cyano-4-phenylthiazol-2-yl)carbamoyl)cyclopentane-1-carboxylate], the AUC last ([1]; iv 1 mg/Kg, plasma, 1 mg/kg) was 2373.87 ng·h/mL, the clearance ([1]; iv 1 mg/Kg, 1 mg/kg) was 7.11 mL/min/kg and the “moisture content at 25% RH” value [2, 5] was 0.0722%. The “moisture content at 55% RH” value [2, 5] was 0.1165%, the “moisture content at 75% RH (variation in the moisture content)” value (“moisture content at 75% RH” for short) [2, 5] was 0.2096% and the “moisture content at 75% RH” value ([2]; listed as tromethamine salt) was 0.17%. The “hygroscopicity (result in words)” value [2, 6] was “less hygroscopic than the free acid form”, the “hygroscopicity (result in words)” value ([2]; DVS, usual drug storage conditions (<75% RH), listed as tromethamine salt) was “less hygroscopic than free acid” and the “solubility compared with other salts and free acid” value [3] was “higher solubility compared to others salts”. For the same compound, the “stability under forced conditions (result in words)” value (“stability under forced conditions” below) [4] was “no cristallinity changes, colour or any other change in the aspect were observed; also recorded: stable solid, even under forced stability conditions”.
For `N#Cc1sc(NC(=O)[C@H]2CC[C@@H](C(=O)O)C2)nc1-c1ccccc1` [(1R,3S)-3-(5-cyano-4-phenyl-1,3-thiazol-2-ylcarbamoyl)cyclop] [(1R,3S)-3-(5-cyano-4-phenyl-1,3-thiazol-2-ylcarbamoyl)cyclopentane carboxylic acid], the “moisture content at 25% RH” value [2] was 0.1283%, the “moisture content at 55% RH” value [2] was 0.3008% and the “moisture content at 75% RH” value [2] was 0.4369%. The “moisture content at 75% RH” value ([2]; listed as free acid) was 0.43% and the “hygroscopicity (result in words)” value [2, 6] was “exhibits certain levels of hygroscopicity”.
Work on `N#Cc1sc(NC(=O)[C@H]2CC[C@@H](C(=O)O)C2)nc1-c1ccccc1` [(1R,3S)-3-(5-cyano-4-phenyl-1,3-thiazol-2-ylcarbamoyl)cyclopentane carboxylic acid] yielded an AUC(0-t) ([1]; male, SD, rat, plasma, iv, 1 mg/kg, AUC last, iv 1 mg/Kg) of 2200 ng·h/mL and a clearance ([1]; male, SD, rat, plasma, iv, 1 mg/kg, Clearance, iv 1 mg/Kg) of 6.3 mL/min/kg.
In the case of `CCNCC.N#Cc1sc(NC(=O)[C@H]2CC[C@@H](C(=O)O)C2)nc1-c1ccccc1` [Diethylammonium (1R,3S)-3-((5-cyano-4-phenylthiazol-2-yl)carbamoyl)cyclopentane-1-carboxylate], the clearance ([1]; iv 1 mg/Kg) is reported as 5.02 mL/min/kg, the AUC last ([1]; iv 1 mg/Kg, plasma) is reported as 3383.00 ng·h/mL and the “F % (bioavailability)” value ([1]; po 5 mg/Kg vs iv 1 mg/Kg, from AUClast) is reported as 68%. The AUC last ([1]; po 5 mg/Kg, plasma) was 11580.30 ng·h/mL, the Cmax ([1]; po 5 mg/Kg, solution in normal saline, plasma) was 5906.53 ng/mL and the “stability under forced conditions” value [4] was “showed some degradation”.
For `N#Cc1sc(NC(=O)[C@H]2CC[C@@H](C(=O)[O-])C2)nc1-c1ccccc1.[Na+]` [Sodium (1R,3S)-3-((5-cyano-4-phenylthiazol-2-yl)carbamoyl)cyclopentane-1-carboxylate], the “hygroscopicity (result in words)” value [2, 6] was “showed evident hygroscopicity”, the solubility (physchem) was 36.3 µM and the “stability under forced conditions” value [4] was “did not have good stability, changed color”. The AUC(0-t) (in vivo; iv, 1 mg/kg) was 5090 ng·h/mL, the clearance (in vivo; iv, 1 mg/kg) was 3.31 mL/min/kg and the AUC(0-t) (in vivo; po, 5 mg/kg) was 21600 ng·h/mL. It also gave a Cmax (in vivo; po, 5 mg/kg) of 13200 ng/mL and a bioavailability (in vivo; po, 5 mg/kg) of 85%.
In the case of “Magnesium (1R,3S)-3-((5-cyano-4-phenylthiazol-2-yl)carbamoyl)cyclopentane-1-carboxylate”, the “hygroscopicity (result in words)” value [2] is reported as “very hygroscopic”, the “moisture content at 25% RH” value [2] is reported as 4.929% and the “moisture content at 55% RH” value [2] is reported as 11.27%. The “moisture content at 75% RH” value [2] was 18.11% and the “moisture content at 75% RH” value ([2]; listed as magnesium salt) was 18%.
